Results reported in patent US20140094512A1, “METHOD OF MODULATING THE DEGREE OF ADIPOSE TISSUE DEPOSITED INTRAMUSCULARLY” (priority 2012, published 2014).

Key:
3T3-L1 preadipocyte = experiment: retinoic acid induced inhibition of 3T3-L1-preadipocyte differentiation, Oil Red O staining of lipid droplets; assay type: cell-based, mouse; settings: for Oil Red O absorbance (OD minus blank), well1 / Oil Red O absorbance (OD minus blank), well2 / Oil Red O absorbance (OD minus blank), average: OD 492 nm; for Oil Red O absorbance (OD minus blank), well1 / Oil Red O absorbance (OD minus blank), well2: day 9; for Oil Red O absorbance (OD minus blank), average: day 9, control average 0.5263
Method: The effectiveness of the RAR alpha antagonists Compounds No. 2, 3 and 4 and the RAR pan antagonist Compound No. 1 in blocking the inhibitory effect of all-trans retinoic acid (ATRA) on 3T3-L1 preadipocyte differentiation was investigated.
In this experiment the “Oil Red O”-staining of lipid droplets is used as indicator of the degree of adipogenesis. After conveniently extraction of the dye from the lipid droplets the absorbance was measured with a microplate reader.
3T3-L1-cells (passage 7) of one flask (75 cm^2) were trypsinized by treating the adherent cells with 2 ml 0.25% Trypsin-EDTA. The reaction was stopped with fibroblast growth medium (DMEM/10% Newborn Calf Serum/1% Penicillin/Streptomycin) and 1 ml of this cellsuspension were added to each well of a 12-well-plate. Cells were incubated at 37° C./5% CO2 in an incubator.
One day after cells reach confluency the fibroblast growth medium was removed and adipogenesis initiation medium (DMEM/10% FBS/1 μM Dexamethasone/0.5 mM IBMX/1 μg/ml Insulin) was added into 2 wells (i.e., in duplicate) without further substances (control), into 2 wells with 0.1 μM ATRA+ alternative 1 μM of compound No. 4, Compound No. 2, Compound No. 3 and 1 into 2 wells with 0.1 μM ATRA.
After incubation for two days, the adipogenesis initiation medium was removed and 1.5 ml adipogenesis medium (DMEM/10% FBS/1 μg/ml Insulin) containing the substances as indicated above was added per well. After another three days of incubation, the medium was replaced by adipogenesis medium without any additional substances. The culture medium was replaced every 2 or 3 days.
Nine days after addition of adipogenesis initiation medium, the medium was removed from all wells. Cells were fixed and stained with Oil Red O as follows:
Fix the cells in 10% formalin in PBS, remove formalin, dry completely, wash with PBS, dry at room temperature; Prepare Oil red O working solution by diluting 3 parts Oil Red O stock solution with 2 parts dH2O; Add Oil red O working solution for 1 hour; Remove all Oil Red O and immediately add dH2O, wash with dH2O until water is colourless; Wash with 60% isopropanol, dry completely at room temperature; elute Oil red O by adding 60% isopropaniol/4% Triton X-100 solution for 1.5 hours; transfer to 96 well plate; measure absorption (optical density—OD) at 492 nm (Tecan Spectraflour plus)
The absorbance is reported in Table 2 and FIG. 1 as the difference of the observed OD of extracted dye at 492 nm and a blank well OD value.

bovine SVF cells = experiment: retinoic acid induced inhibition of the differentiation of bovine SVF cells to adipocytes, Oil Red O staining; assay type: cell-based; settings: for lipid accumulation compared with control cells / Oil Red O absorbance (OD minus blank), well1 / Oil Red O absorbance (OD minus blank), well2 / Oil Red O absorbance (OD minus blank), average: bovine SVF cells; for Oil Red O absorbance (OD minus blank), well1 / Oil Red O absorbance (OD minus blank), well2 / Oil Red O absorbance (OD minus blank), average: OD 530 nm, day 13; for Oil Red O absorbance (OD minus blank), average: control average 0.4465
Method: The efficiency of the RAR antagonists compounds No. 1, 3, 4 and 5 in blocking the antiadipogenic effect of ATRA on bovine cells was investigated. The cells used in this experiment were from a primary culture of the stromal-vascular fraction isolated from intramuscular fat of an Angus steer.
To assess the adipocyte differentiation state, the cells of a 12-well plate were stained with “Oil Red O” and after conveniently extraction of the dye from the lipid droplets the absorbance was measured with a microplate reader.
Cells of a bovine stromal-vascular fraction from intramuscular fat (passage 4) of one flask (75 cm^2) were trypsinized by treating the adherent cells with 2 ml 0.25% Trypsin-EDTA. The reaction was stopped with growth medium (DMEM, 1% (v/v) of antibiotic solution, 50 μg/ml gentamicin sulfate, 33 μM biotin, 17 μM D-pantothenate, 100 μM (+)-sodium L-ascorbate and 10% FCS heat inactivated) and 1.5 ml of this cell suspension were added to each well of a 12-well-plate. Cells were incubated at 37° C./5% CO2 in an incubator.
One day after cells reach confluency the growth medium was removed and adipogenesis initiation medium (growth medium/0.25 μM Dexamethasone/10 μg/ml Insulin/1 μM rosiglitazone) was added into 2 wells (i.e., in duplicate) without further compounds. Adipogenesis initiation medium additionally containing 0.1 μM ATRA was added into 2 wells without further compounds and alternative with 1 μM of compound No. 1, compound No. 3, compound No. 4 and compound No. 5 into 2 wells each of the 12-well plate.
After incubation for three days, the adipogenesis initiation medium was removed and 1.5 ml adipogenesis medium (growth medium/10 μg/ml Insulin/1 μM rosiglitazone) containing the substances as indicated above was added per well. The culture medium was replaced twice a week.
Thirteen days after addition of adipogenesis initiation medium the medium was removed and cells of the 12-well plate were fixed and stained with Oil Red O as previously described.
The absorbance is reported in Table 3 and FIG. 2 as the difference of the observed OD of extracted dye at 530 nm and a blank well OD value.

RARα = molecular target: T1, RARα (Homo sapiens, UniProt P10276); experiment: luciferase based RA responsive reporter assay, RARα; assay type: cell-based; settings: antagonist
T1 sequence (P10276 1-462): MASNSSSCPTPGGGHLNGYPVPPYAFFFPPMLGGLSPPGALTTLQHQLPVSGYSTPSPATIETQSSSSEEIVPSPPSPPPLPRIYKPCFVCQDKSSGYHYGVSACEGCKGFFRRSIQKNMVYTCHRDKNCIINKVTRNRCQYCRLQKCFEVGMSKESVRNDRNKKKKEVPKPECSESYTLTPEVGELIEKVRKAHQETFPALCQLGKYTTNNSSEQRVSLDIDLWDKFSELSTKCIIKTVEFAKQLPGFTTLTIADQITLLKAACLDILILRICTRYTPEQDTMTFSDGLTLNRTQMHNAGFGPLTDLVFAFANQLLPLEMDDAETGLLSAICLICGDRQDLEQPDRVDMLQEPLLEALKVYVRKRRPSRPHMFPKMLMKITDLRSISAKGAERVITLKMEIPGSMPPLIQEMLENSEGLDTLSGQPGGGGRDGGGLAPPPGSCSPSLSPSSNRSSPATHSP

RARβ = molecular target: T2, RARβ (Homo sapiens, UniProt P10826); experiment: luciferase based RA responsive reporter assay, RARβ; assay type: cell-based; settings: antagonist
T2 sequence (P10826 1-455): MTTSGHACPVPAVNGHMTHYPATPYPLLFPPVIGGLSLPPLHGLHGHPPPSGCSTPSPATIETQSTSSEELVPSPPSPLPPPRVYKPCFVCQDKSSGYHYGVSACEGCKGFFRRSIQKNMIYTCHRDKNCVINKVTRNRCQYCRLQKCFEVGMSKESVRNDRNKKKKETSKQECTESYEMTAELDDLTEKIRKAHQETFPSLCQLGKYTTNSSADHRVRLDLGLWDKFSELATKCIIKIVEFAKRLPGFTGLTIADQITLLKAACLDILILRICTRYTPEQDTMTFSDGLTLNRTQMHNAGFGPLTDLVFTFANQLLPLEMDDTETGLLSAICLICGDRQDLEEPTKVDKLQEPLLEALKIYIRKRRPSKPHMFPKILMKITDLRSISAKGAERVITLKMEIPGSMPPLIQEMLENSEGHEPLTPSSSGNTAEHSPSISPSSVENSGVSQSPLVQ

RARγ = molecular target: T3, RARγ (Homo sapiens, UniProt P13631); experiment: luciferase based RA responsive reporter assay, RARγ; assay type: cell-based; settings: antagonist
T3 sequence (P13631 1-454): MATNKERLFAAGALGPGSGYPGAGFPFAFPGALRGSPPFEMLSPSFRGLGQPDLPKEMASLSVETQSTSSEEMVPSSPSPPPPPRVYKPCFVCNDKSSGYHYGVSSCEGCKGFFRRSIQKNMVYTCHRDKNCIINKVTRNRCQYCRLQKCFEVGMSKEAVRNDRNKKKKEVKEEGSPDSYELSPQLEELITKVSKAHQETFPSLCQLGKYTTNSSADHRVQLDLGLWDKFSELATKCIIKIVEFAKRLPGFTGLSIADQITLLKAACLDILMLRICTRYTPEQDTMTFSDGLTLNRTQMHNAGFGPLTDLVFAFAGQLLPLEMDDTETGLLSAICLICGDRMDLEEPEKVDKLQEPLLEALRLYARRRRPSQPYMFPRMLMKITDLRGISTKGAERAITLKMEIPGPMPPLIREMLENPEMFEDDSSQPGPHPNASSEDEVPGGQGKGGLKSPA

RARs = experiment: agonistic activity on RARs; assay type: cell-based

CC1(C)CC=C(c2cnc3ccccc3c2)c2cc(C(=O)Nc3ccc(C(=O)O)cc3)ccc21 [Compound No. 3]
Oil Red O absorbance (OD minus blank), well1 (3T3-L1 preadipocyte; 1 μM compound + 0.1 μM ATRA): 0.3589
Oil Red O absorbance (OD minus blank), well2 (3T3-L1 preadipocyte; 1 μM compound + 0.1 μM ATRA): 0.2996
Oil Red O absorbance (OD minus blank), average (3T3-L1 preadipocyte; 1 μM compound + 0.1 μM ATRA): 0.3293
lipid accumulation compared with control cells (bovine SVF cells; 1 μM compound + 0.1 μM ATRA): lipid accumulation of control cells is not reached
Oil Red O absorbance (OD minus blank), well1 (bovine SVF cells; 1 μM compound + 0.1 μM ATRA): 0.3504
Oil Red O absorbance (OD minus blank), well2 (bovine SVF cells; 1 μM compound + 0.1 μM ATRA): 0.4044
Oil Red O absorbance (OD minus blank), average (bovine SVF cells; 1 μM compound + 0.1 μM ATRA): 0.3774

Cc1ccc(C2=CC(C)(C)Oc3c(Br)cc(C(=O)Nc4cc(F)c(C(=O)O)c(F)c4)cc32)cc1 [Compound No. 2]
Oil Red O absorbance (OD minus blank), well1 (3T3-L1 preadipocyte; 1 μM compound + 0.1 μM ATRA): 0.2264
Oil Red O absorbance (OD minus blank), well2 (3T3-L1 preadipocyte; 1 μM compound + 0.1 μM ATRA): 0.2267
Oil Red O absorbance (OD minus blank), average (3T3-L1 preadipocyte; 1 μM compound + 0.1 μM ATRA): 0.2266

CC1=C(/C=C/C(C)=C/C=C/C(C)=C/C(=O)O)C(C)(C)CCC1 [ATRA, all-trans retinoic acid]
amount of differentiated lipid-containing adipocytes (3T3-L1 preadipocyte; ATRA 0.1 μM alone): significantly reduced
Oil Red O absorbance (OD minus blank), well1 (3T3-L1 preadipocyte; ATRA 0.1 μM alone): 0.0925
Oil Red O absorbance (OD minus blank), well2 (3T3-L1 preadipocyte; ATRA 0.1 μM alone): 0.0727
Oil Red O absorbance (OD minus blank), average (3T3-L1 preadipocyte; ATRA 0.1 μM alone): 0.0826
Oil Red O absorbance (OD minus blank), well1 (bovine SVF cells; ATRA 0.1 μM alone): 0.1409
Oil Red O absorbance (OD minus blank), well2 (bovine SVF cells; ATRA 0.1 μM alone): 0.1924
Oil Red O absorbance (OD minus blank), average (bovine SVF cells; ATRA 0.1 μM alone): 0.1667
amount of Oil Red O stainable lipid droplets (bovine SVF cells; ATRA 0.1 μM alone, bovine cells): clearly decreased

CN1c2cc3c(cc2N=C(c2ccc(C(=O)O)cc2)c2ccc4ccccc4c21)C(C)(C)CCC3(C)C [Compound No. 5]
lipid accumulation compared with control cells (bovine SVF cells; 1 μM compound + 0.1 μM ATRA): lipid accumulation of control cells is not reached
Oil Red O absorbance (OD minus blank), well1 (bovine SVF cells; 1 μM compound + 0.1 μM ATRA): 0.2915
Oil Red O absorbance (OD minus blank), well2 (bovine SVF cells; 1 μM compound + 0.1 μM ATRA): 0.3318
Oil Red O absorbance (OD minus blank), average (bovine SVF cells; 1 μM compound + 0.1 μM ATRA): 0.3117

Cc1ccc(C2=CCC(C)(C)c3ccc(C#Cc4ccc(C(=O)O)cc4)cc32)cc1 [Compound No. 1]
Oil Red O absorbance (OD minus blank), well1 (3T3-L1 preadipocyte; 1 μM compound + 0.1 μM ATRA): 0.1736
Oil Red O absorbance (OD minus blank), well2 (3T3-L1 preadipocyte; 1 μM compound + 0.1 μM ATRA): 0.1792
Oil Red O absorbance (OD minus blank), average (3T3-L1 preadipocyte; 1 μM compound + 0.1 μM ATRA): 0.1764
lipid accumulation compared with control cells (bovine SVF cells; 1 μM compound + 0.1 μM ATRA): lipid accumulation of control cells is not reached
Oil Red O absorbance (OD minus blank), well1 (bovine SVF cells; 1 μM compound + 0.1 μM ATRA): 0.2849
Oil Red O absorbance (OD minus blank), well2 (bovine SVF cells; 1 μM compound + 0.1 μM ATRA): 0.3493
Oil Red O absorbance (OD minus blank), average (bovine SVF cells; 1 μM compound + 0.1 μM ATRA): 0.3171

Cc1ccc(C2=CC(C)(C)Oc3c(Br)cc(C(=O)Nc4ccc(C(=O)O)cc4)cc32)cc1 [Compound No. 4, 4-[[8-bromo-2,2-dimethyl-4-(p-tolyl)chromene-6-carbonyl]amino]benzoic acid]
IC50 (RARα): 4 nM
IC50 (RARβ): 2980 nM
IC50 (RARγ): 2350 nM
agonistic activity on RARs (RARs): lacks any significant agonistic activity
Oil Red O absorbance (OD minus blank), well1 (3T3-L1 preadipocyte; 1 μM compound + 0.1 μM ATRA): 0.3361
Oil Red O absorbance (OD minus blank), well2 (3T3-L1 preadipocyte; 1 μM compound + 0.1 μM ATRA): 0.3571
Oil Red O absorbance (OD minus blank), average (3T3-L1 preadipocyte; 1 μM compound + 0.1 μM ATRA): 0.3466
Oil Red O absorbance (OD minus blank), well1 (bovine SVF cells; 1 μM compound + 0.1 μM ATRA): 0.5411
Oil Red O absorbance (OD minus blank), well2 (bovine SVF cells; 1 μM compound + 0.1 μM ATRA): 0.6229
Oil Red O absorbance (OD minus blank), average (bovine SVF cells; 1 μM compound + 0.1 μM ATRA): 0.5820
